Source: patent US9365588B2, “Benzoxazines as modulators of ion channels” (Vertex Pharmaceuticals Incorporated, priority 2011, dated 2016)

What follows are compounds tested against human NaV 1.7 (Homo sapiens, UniProt Q15858) (assay: E-VIPR optical membrane potential assay with electrical stimulation). Settings: sodium channel inhibition; read-out: Binned Activity Data (IC50).
Format: cell-based
How it was run: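 Membrane-potential read-out: background-subtracted 460 nm/580 nm ratio during a 9 s current-controlled stimulus, 400 Hz scan. Before stimulation, NaV1.7-HEK cells carried coumarin/oxonol dye and compound (final DMSO 0.625%) for 20–35 min at room temperature; tetracaine 125 μM served as positive control.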

Chain of human NaV 1.7 (Q15858 whole entry): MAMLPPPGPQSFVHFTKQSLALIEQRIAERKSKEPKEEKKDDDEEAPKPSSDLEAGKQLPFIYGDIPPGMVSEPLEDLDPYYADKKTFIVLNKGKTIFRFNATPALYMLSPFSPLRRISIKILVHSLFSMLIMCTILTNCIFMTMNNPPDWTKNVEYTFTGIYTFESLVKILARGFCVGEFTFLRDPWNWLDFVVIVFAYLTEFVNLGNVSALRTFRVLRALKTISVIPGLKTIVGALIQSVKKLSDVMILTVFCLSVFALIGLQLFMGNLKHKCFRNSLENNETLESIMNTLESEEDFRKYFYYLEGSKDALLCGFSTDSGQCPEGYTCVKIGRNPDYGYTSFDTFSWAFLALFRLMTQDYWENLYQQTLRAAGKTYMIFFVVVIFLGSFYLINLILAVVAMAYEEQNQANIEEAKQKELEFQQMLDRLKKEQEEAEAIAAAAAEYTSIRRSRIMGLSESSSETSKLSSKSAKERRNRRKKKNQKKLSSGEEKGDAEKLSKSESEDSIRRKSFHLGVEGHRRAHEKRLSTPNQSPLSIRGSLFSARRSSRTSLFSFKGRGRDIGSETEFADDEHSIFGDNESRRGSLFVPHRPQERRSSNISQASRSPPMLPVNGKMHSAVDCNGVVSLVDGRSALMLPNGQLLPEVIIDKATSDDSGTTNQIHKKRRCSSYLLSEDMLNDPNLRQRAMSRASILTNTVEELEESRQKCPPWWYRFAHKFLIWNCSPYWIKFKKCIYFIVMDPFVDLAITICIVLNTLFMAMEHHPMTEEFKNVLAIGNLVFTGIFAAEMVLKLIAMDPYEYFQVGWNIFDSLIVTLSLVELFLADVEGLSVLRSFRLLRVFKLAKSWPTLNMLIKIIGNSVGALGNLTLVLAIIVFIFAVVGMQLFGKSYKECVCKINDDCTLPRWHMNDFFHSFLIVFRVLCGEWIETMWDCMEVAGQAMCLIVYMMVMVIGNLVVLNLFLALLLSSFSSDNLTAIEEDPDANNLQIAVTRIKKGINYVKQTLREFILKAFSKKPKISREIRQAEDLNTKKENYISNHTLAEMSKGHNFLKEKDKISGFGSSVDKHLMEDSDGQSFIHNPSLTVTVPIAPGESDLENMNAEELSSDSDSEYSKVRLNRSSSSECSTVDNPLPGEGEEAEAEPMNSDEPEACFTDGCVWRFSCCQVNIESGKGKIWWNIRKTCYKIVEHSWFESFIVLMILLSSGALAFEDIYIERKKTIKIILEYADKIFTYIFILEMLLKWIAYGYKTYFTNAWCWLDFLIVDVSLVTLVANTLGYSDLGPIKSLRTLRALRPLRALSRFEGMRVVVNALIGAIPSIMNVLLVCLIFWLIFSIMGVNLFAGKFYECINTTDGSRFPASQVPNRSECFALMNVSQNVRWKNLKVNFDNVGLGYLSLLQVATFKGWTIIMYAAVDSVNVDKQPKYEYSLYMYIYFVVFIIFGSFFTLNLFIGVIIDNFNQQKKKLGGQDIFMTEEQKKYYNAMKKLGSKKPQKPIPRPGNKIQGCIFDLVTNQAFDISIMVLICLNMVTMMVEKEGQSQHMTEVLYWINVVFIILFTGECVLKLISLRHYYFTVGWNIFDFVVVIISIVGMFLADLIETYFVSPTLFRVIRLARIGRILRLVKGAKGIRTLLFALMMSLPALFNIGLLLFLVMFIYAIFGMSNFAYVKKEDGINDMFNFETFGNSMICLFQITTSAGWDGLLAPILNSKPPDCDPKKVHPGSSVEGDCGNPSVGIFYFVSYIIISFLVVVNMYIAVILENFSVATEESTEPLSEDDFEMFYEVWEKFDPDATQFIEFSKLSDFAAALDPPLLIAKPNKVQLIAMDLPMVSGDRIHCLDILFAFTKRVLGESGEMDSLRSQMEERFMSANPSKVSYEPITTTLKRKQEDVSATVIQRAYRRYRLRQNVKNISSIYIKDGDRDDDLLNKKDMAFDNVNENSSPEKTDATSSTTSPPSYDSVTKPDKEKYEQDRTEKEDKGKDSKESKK

Row | IC50 [nM] | Compound
1 | ≤ 2000 | COc1ccc(C(=O)N2CCC3(CC2)Oc2cc(Cl)ccc2-n2cccc23)c(OC)c1 [Compound 578]
2 | 2000 to 5000 | COc1cc(C(=O)N2CCC3(CC2)Oc2ccccc2-c2[nH]ncc23)ccc1OC(C)(C)C [Compound 553]
3 | ≤ 2000 | COc1cc(C(=O)N2CCC3(CC2)Oc2ccccc2-n2cccc23)ccc1OCCOC(F)(F)F [Compound 191]
4 | ≤ 2000 | Cn1ncc2c1-c1ccccc1OC21CCN(C(=O)c2cccc3[nH]ccc23)CC1 [Compound 186]
5 | ≤ 2000 | COc1ccc(Cl)cc1C(=O)N1CCC2(CC1)Oc1cc(Cl)ccc1-n1cccc12 [Compound 858]
6 | 2000 to 5000 | Cn1ncc2c1-c1ccccc1OC21CCN(C(=O)c2ccc(OC(C)(C)C)cc2)CC1 [Compound 28]
7 | ≤ 2000 | CCCOc1ccc(C(=O)N2CCC3(CC2)Oc2ccccc2-n2cccc23)cc1C#N [Compound 361]
8 | ≤ 2000 | COc1cc(F)c(C(=O)N2CCC3(CC2)Oc2cc(Cl)ccc2-n2cccc23)cc1OC [Compound 561]
9 | ≤ 2000 | COc1cc(C(=O)N2CCC3(CC2)Oc2ccccc2-c2nn(C)cc23)ccc1OC(C)C [Compound 281]
10 | ≤ 2000 | CCc1ccc(C(=O)N2CCC3(CC2)Oc2ccccc2-c2sc(C)nc23)cc1OC [Compound 257]
11 | ≤ 2000 | COc1cc(C(=O)N2CCC3(CC2)Oc2ccccc2-n2cccc23)ccc1O[C@@H]1CCC[C@H]1O [Compound 437]
12 | ≤ 2000 | COc1cc(C(=O)N2CCC3(CC2)Oc2ccccc2-n2cccc23)ccc1OC(C)(C)C [Compound 727]
13 | ≤ 2000 | CC(C)(C)c1ccc(C(=O)N2CCC3(CC2)Oc2cc(Cl)ccc2-n2cccc23)cc1C#N [Compound 220]
14 | ≤ 2000 | COc1cc(C(=O)N2CCC3(CC2)Oc2cc(Cl)ccc2-n2cccc23)ccc1OC1CCC(O)C1 (centres unmarked) [Compound 366]
15 | > 5000 | Cn1ncc2c1-c1ccccc1OC21CCN(C(=O)c2ccc(N3CCCCC3)nc2)CC1 [Compound 104]
16 | > 5000 | Cn1ncc2c1-c1ccccc1OC21CCN(C(=O)c2cccc3cnn(C)c23)CC1 [Compound 644]
17 | ≤ 2000 | COc1cc(C(=O)N2CCC3(CC2)Oc2ccccc2-n2c3ccc2S(C)(=O)=O)ccc1OC(C)C [Compound 768]
18 | ≤ 2000 | Cn1ncc2c1-c1ccccc1OC21CCN(C(=O)c2cccc3c2OCC3)CC1 [Compound 290]
19 | 2000 to 5000 | Cn1ccc(C(=O)N2CCC3(CC2)Oc2cc(Cl)ccc2-n2c(C(F)(F)F)ccc23)cc1=O [Compound 250]
20 | > 5000 | Cn1ccc(C(=O)N2CCC3(CC2)Oc2ccccc2-n2cccc23)cc1=O [Compound 405]
21 | 2000 to 5000 | CC(C)(O)c1ccc(C(=O)N2CCC3(CC2)Oc2ccccc2-n2c(C(F)(F)F)ccc23)cc1CO [Compound 572]
22 | ≤ 2000 | Cc1cc(C(=O)N2CCC3(CC2)Oc2ccccc2-c2nn(C)cc23)ccc1OC(C)C [Compound 689]
23 | 2000 to 5000 | Cc1cc(C(=O)N2CCC3(CC2)Oc2ccccc2-c2c3cnn2C)ccc1OC(F)(F)F [Compound 838]
24 | ≤ 2000 | COc1ccc(C(=O)N2CCC3(CC2)Oc2ccccc2-c2c3cnn2C)c(OC(F)(F)F)c1 [Compound 664]
25 | ≤ 2000 | Cn1cc2c(n1)-c1cc(F)ccc1OC21CCN(C(=O)c2ccc(C(C)(C)O)cc2)CC1 [Compound 486]
26 | ≤ 2000 | Cc1cc(C(C)(C)O)ccc1C(=O)N1CCC2(CC1)Oc1ccccc1-c1c2cnn1C [Compound 447]
27 | ≤ 2000 | Cc1cc(C(=O)N2CCC3(CC2)Oc2ccccc2-n2c(C#N)ccc23)ccc1OC(C)C [Compound 655]
28 | ≤ 2000 | CC(=O)c1ccc2n1-c1ccccc1OC21CCN(C(=O)c2ccc(S(=O)(=O)C(C)(C)C)cc2)CC1 [Compound 311]

Row | IC50 [nM] | Compound
29 | ≤ 2000 | COc1c(F)cccc1C(=O)N1CCC2(CC1)Oc1ccccc1-c1c2cnn1C(C)C [Compound 544]
30 | ≤ 2000 | COc1ccc(C(=O)N2CCC3(CC2)Oc2ccccc2-c2c3cnn2C)c(C)c1 [Compound 774]
31 | ≤ 2000 | CCc1ccc(C(=O)N2CCC3(CC2)Oc2ccccc2-c2c3cnn2C)cc1OC [Compound 251]
32 | ≤ 2000 | COc1cc(C(=O)N2CCC3(CC2)Oc2ccccc2-c2nn(CC(F)(F)F)cc23)ccc1OCCC(C)C [Compound 589]
33 | ≤ 2000 | COc1ccc(C(=O)N2CCC3(CC2)Oc2ccccc2-c2nn(C)cc23)c(OC)c1OC [Compound 646]
34 | ≤ 2000 | CN(C)CCOc1ccc(C(=O)N2CCC3(CC2)Oc2ccccc2-n2cccc23)cc1C(F)(F)F [Compound 333]
35 | ≤ 2000 | O=C(c1cc(Cl)cc(Cl)c1)N1CCC2(CC1)Oc1cc(Cl)ccc1-n1cccc12 [Compound 277]
36 | > 5000 | Cn1cc2c(n1)-c1ccccc1OC21CCN(C(=O)c2ccc(C(C)(C)O)c(CO)c2)CC1 [Compound 425]
37 | ≤ 2000 | CCOc1cccc(C(=O)N2CCC3(CC2)Oc2cc(Cl)ccc2-n2cccc23)c1 [Compound 478]
38 | ≤ 2000 | COc1cc(C(=O)N2CCC3(CC2)Oc2ccccc2-n2c(C#N)ccc23)ccc1OC(C)C [Compound 156]
39 | > 5000 | COc1cnccc1C(=O)N1CCC2(CC1)Oc1ccccc1-c1c2cnn1C [Compound 384]
40 | ≤ 2000 | COc1ccc(F)cc1C(=O)N1CCC2(CC1)Oc1cc(Cl)ccc1-n1c(C#N)ccc12 [Compound 799]
41 | ≤ 2000 | CC(C)(C)S(=O)(=O)c1ccc(C(=O)N2CCC3(CC2)Oc2ccccc2-n2c(C(F)(F)F)ccc23)cc1 [Compound 483]
42 | ≤ 2000 | COc1ccccc1C(=O)N1CCC2(CC1)Oc1cc(F)ccc1-c1c2cnn1C [Compound 845]
43 | ≤ 2000 | COCCOc1cc(F)c(C(=O)N2CCC3(CC2)Oc2cc(Cl)ccc2-n2cccc23)cc1OC [Compound 628]
44 | ≤ 2000 | N#Cc1ccc2n1-c1ccccc1OC21CCN(C(=O)c2ccc(S(=O)(=O)C(F)F)cc2)CC1 [Compound 530]
45 | ≤ 2000 | CC(C)Oc1ccc(C(=O)N2CCC3(CC2)Oc2ccc(F)cc2-c2nn(C)cc23)cc1CO [Compound 180]
46 | ≤ 2000 | COCCOc1ccc(C(=O)N2CCC3(CC2)Oc2ccccc2-n2cccc23)cc1C#N [Compound 62]
47 | ≤ 2000 | CC(=O)NCc1ccc2n1-c1ccccc1OC21CCN(C(=O)c2ccc(OC(C)C)c(C)c2)CC1 [Compound 514]
48 | ≤ 2000 | CC(C)Oc1ccc(C(=O)N2CCC3(CC2)Oc2ccccc2-n2c([S+](C)[O-])ccc23)cc1CO (centres unmarked) [Compound 286]
49 | ≤ 2000 | Cc1cc(C(=O)N2CCC3(CC2)Oc2ccccc2-n2c(C#N)ccc23)ccc1S(C)(=O)=O [Compound 509]
50 | ≤ 2000 | CCc1ccc(C(=O)N2CCC3(CC2)Oc2ccccc2-n2c(C)ccc23)cc1OC [Compound 735]
51 | ≤ 2000 | CCCCc1nc2cc(C(=O)N3CCC4(CC3)Oc3ccccc3-n3c(C(F)(F)F)ccc34)ccc2o1 [Compound 198]
52 | ≤ 2000 | CC(C)Oc1ccc(C(=O)N2CCC3(CC2)Oc2ccccc2-n2cccc23)cc1C(F)(F)F [Compound 376]
53 | ≤ 2000 | Cn1cc2c(n1)-c1ccccc1OC21CCN(C(=O)c2ccc(OC(F)F)cc2)CC1 [Compound 284]
54 | ≤ 2000 | CC(C)(O)c1ccc(C(=O)N2CCC3(CC2)Oc2ccccc2-n2c(C(F)(F)F)ccc23)cc1 [Compound 722]
55 | ≤ 2000 | COc1ccc2c(c1)OC1(CCN(C(=O)c3ccc(OC(C)C)c(C)c3)CC1)c1cnn(C)c1-2 [Compound 289]

Row | Compound | IC50 [nM]
56 | CCc1ccc(C(=O)N2C3CCC2CC2(C3)Oc3ccccc3-n3cccc32)cc1OC (centres unmarked) [Compound 555] | ≤ 2000
